Results taken from PubChem BioAssay AID1259408 (Genetic Toxicology Data Bank (GENE-TOX), 2018).
The source made the active and inactive calls. How the calls were made is not given here.

System: GENE-TOX genotoxicity assays, various organisms and cells
Assay: GENE-TOX mutagenicity studies
Conditions: for call: Assay Type: In vivo carcinogenicity studies
[1] = Species/Cell Type: Salmonella typhimurium (one or more of the five standard strains: TA98, TA100, TA1535, TA1537, and TA1538), Assay Type: Histidine reverse gene mutation, Ames assay, Assay Code: SALT, Evaluation Type: Evaluation A (Pre-1980)
[2] = Species/Cell Type: Escherichia coli polA (W3119 vs P3478), Assay Type: Rec-assay, DNA effects (bacterial DNA repair), Assay Code: RE1T, Evaluation Type: Evaluation A (Pre-1980)
[3] = Species/Cell Type: Human diploid fibroblasts, Assay Type: Unscheduled DNA synthesis (UDS) in vitro, DNA effects, Assay Code: UDH-, Evaluation Type: Evaluation A (Pre-1980)
[4] = Species/Cell Type: Saccharomyces cerevisiae, Assay Type: Mitotic recombination or gene conversion, Assay Code: YEH-, Evaluation Type: Evaluation A (Pre-1980)
[5] = Species/Cell Type: Human lymphocytes, Assay Type: Sister-chromatid exchange (SCE) in vitro, Assay Code: SCL+, Evaluation Type: Evaluation B (Post-1980)
[6] = Species/Cell Type: Human, Assay Type: Sister-chromatid exchange (SCE) in vitro, Assay Code: SC1+, Evaluation Type: Evaluation B (Post-1980)
[7] = Species/Cell Type: Salmonella typhimurium (one or more of the five standard strains: TA98, TA100, TA1535, TA1537, and TA1538), Assay Type: Histidine reverse gene mutation, Ames assay, Assay Code: SAL-, Evaluation Type: Evaluation A (Pre-1980)
[8] = Species/Cell Type: Salmonella typhimurium, Assay Type: Forward and reverse gene mutation, host-mediated assay, Assay Code: HMA+, Evaluation Type: Evaluation A (Pre-1980)

Structure (SMILES): CC(=O)NS(=O)(=O)c1ccc(N)cc1
- mutagenic call (Species/Cell Type: Neurospora crassa, Assay Type: Aneuploidy, chromosome aberrations, Assay Code: NEN+, Evaluation Type: Evaluation A (Pre-1980)): active; positive
- mutagenic call (Species/Cell Type: Saccharomyces cerevisiae, Assay Type: Aneuploidy, chromosome aberrations, Assay Code: YEN+, Evaluation Type: Evaluation A (Pre-1980)): active; positive

Structure (SMILES): COc1cc2c[n+](C)c3c4cc(OC)c(OC)cc4ccc3c2cc1OC
- mutagenic call [1]: no conclusion

Structure (SMILES): Cc1ccc2c(ccc3c4c(ccc32)C(=O)CC4)c1
- mutagenic call [1]: no conclusion

Structure (SMILES): NC(=O)N1c2ccccc2C=Cc2ccc(O)cc21
- mutagenic call (Species/Cell Type: Human lymphocytes, Assay Type: Sister-chromatid exchange (SCE) in vitro, Assay Code: SCLT, Evaluation Type: Evaluation B (Post-1980)): no conclusion
- mutagenic call (Species/Cell Type: Human, Assay Type: Sister-chromatid exchange (SCE) in vitro, Assay Code: SC1T, Evaluation Type: Evaluation B (Post-1980)): no conclusion

Structure (SMILES): CCOP(=S)(OCC)SCSCC
- mutagenic call (Species/Cell Type: Bacillus subtilis (H17 vs M45), Assay Type: Rec-assay, spot test, DNA effects (bacterial DNA repair), Assay Code: REWT, Evaluation Type: Evaluation A (Pre-1980)): no conclusion
- mutagenic call (Species/Cell Type: Drosophila melanogaster, Assay Type: Sex-linked recessive lethal gene mutation, Assay Code: SRL-, Evaluation Type: Evaluation A (Pre-1980)): inactive; negative
- mutagenic call (Species/Cell Type: Escherichia coli WP2 UVRA, Assay Type: Tryptophan reverse gene mutation, Assay Code: WPU-*, Activation: With metabolic activation, Evaluation Type: Evaluation A (Pre-1980)): inactive; negative
- mutagenic call [2]: no conclusion
- mutagenic call (Species/Cell Type: Hordeum vulgare (barley), Assay Type: Chromosome aberrations, Assay Code: HOC+D, Dose Response: With dose response, Evaluation Type: Evaluation A (Pre-1980)): active; positive
- mutagenic call [3]: inactive; negative
- mutagenic call (Species/Cell Type: Human, Assay Type: Sister-chromatid exchange (SCE) in vitro, Assay Code: SC1+D, Dose Response: With dose response, Evaluation Type: Evaluation B (Post-1980)): active; positive
- mutagenic call (Species/Cell Type: Mammalian polychromatic erythrocytes, Assay Type: Micronucleus test, chromosome aberrations, Assay Code: MNT+U, Dose Response: Unconfirmed positive response, Evaluation Type: Evaluation B (Post-1980)): active; positive
- mutagenic call [4]: inactive; negative
- mutagenic call [1]: no conclusion

Structure (SMILES): CCSCC[C@H](N)C(=O)O
- mutagenic call (Species/Cell Type: Escherichia coli polA (W3110 vs P3478), Assay Type: Rec-assay, DNA effects (bacterial DNA repair), Assay Code: RE2T, Evaluation Type: Evaluation A (Pre-1980)): no conclusion
- mutagenic call [2]: no conclusion
- mutagenic call [3]: inactive; negative
- mutagenic call [5]: active; positive
- mutagenic call [6]: active; positive
- mutagenic call (Species/Cell Type: Mammalian polychromatic erythrocytes, Assay Type: Micronucleus test, chromosome aberrations, Assay Code: MNT+, Evaluation Type: Evaluation A (Pre-1980)): active; positive
- mutagenic call (Species/Cell Type: Mouse, Sex: Male, Assay Type: Sperm morphology, Assay Code: SPI+, Evaluation Type: Evaluation A (Pre-1980)): active; positive
- mutagenic call [4]: inactive; negative
- mutagenic call [7]: inactive; negative
- mutagenic call (Species/Cell Type: Salmonella typhimurium, Assay Type: Forward and reverse gene mutation, host-mediated assay, Assay Code: HMA-, Evaluation Type: Evaluation A (Pre-1980)): inactive; negative
- mutagenic call (Species/Cell Type: Syrian hamster embryo (SHE) cells, Assay Type: Cell transformation, clonal assay, Assay Code: CTC+, Evaluation Type: Evaluation A (Pre-1980)): active; positive

Structure (SMILES): Cc1ccc2c(c1)cc1ccccc1[n+]2C
- mutagenic call (Species/Cell Type: Saccharomyces cerevisiae, Assay Type: Forward gene mutation, Assay Code: YEFT, Evaluation Type: Evaluation A (Pre-1980)): no conclusion

Structure (SMILES): OC[P+](CO)(CO)CO
- mutagenic call (Species/Cell Type: Mammalian polychromatic erythrocytes, Assay Type: Micronucleus test, chromosome aberrations, Assay Code: MNTT, Evaluation Type: Evaluation B (Post-1980)): no conclusion

Structure (SMILES): ClC1=C(Cl)[C@]2(Cl)[C@@H]3[C@H]4C[C@H]([C@@H]5O[C@H]45)[C@@H]3[C@@]1(Cl)C2(Cl)Cl
- mutagenic call (Species/Cell Type: Drosophila melanogaster, Assay Type: Sex-linked recessive lethal gene mutation, Assay Code: SRLT, Evaluation Type: Evaluation A (Pre-1980)): no conclusion
- mutagenic call (Species/Cell Type: Hordeum vulgare (barley), Assay Type: Chromosome aberrations, Assay Code: HOCT, Evaluation Type: Evaluation A (Pre-1980)): no conclusion
- mutagenic call [3]: inactive; negative
- call (Species/Cell Type: Nonhuman, Assay Code: CCG-L, Evaluation Type: Evaluation A (Pre-1980)): inactive; negative
- mutagenic call [4]: inactive; negative
- mutagenic call [7]: inactive; negative
- mutagenic call (Species/Cell Type: Vicia faba, Assay Type: Chromosome aberrations, Assay Code: VIC+D, Dose Response: With dose response, Evaluation Type: Evaluation A (Pre-1980)): active; positive

Structure (SMILES): CCCCO
- mutagenic call (Species/Cell Type: Nonhuman, Assay Type: Sister-chromatid exchange (SCE) in vitro, Assay Code: SC2-, Evaluation Type: Evaluation A (Pre-1980)): inactive; negative
- mutagenic call [7]: inactive; negative

Structure (SMILES): COc1ccc2c3c([nH]c2c1)C(C)=NCC3
- mutagenic call [1]: no conclusion

Structure (SMILES): Cc1ccc(N=Nc2ccc(N(C)C)cc2)cc1
- mutagenic call (Species/Cell Type: Rat primary hepatocytes, Assay Type: Unscheduled DNA synthesis (UDS) in vitro, DNA effects, Assay Code: UDP-, Evaluation Type: Evaluation A (Pre-1980)): inactive; negative

Structure (SMILES): CCN(CC)c1ccc(N=Nc2ccccc2)cc1
- mutagenic call [4]: inactive; negative
- mutagenic call [7]: inactive; negative

Structure (SMILES): CCN(CC)c1ccc2nc3ccc(N=Nc4ccc(N(C)C)cc4)cc3[n+](-c3ccccc3)c2c1
- mutagenic call (Species/Cell Type: Bacillus subtilis (H17 vs M45T), Assay Type: Rec-assay, spot test, DNA effects (bacterial DNA repair), Assay Code: REXT, Evaluation Type: Evaluation A (Pre-1980)): no conclusion

Structure (SMILES): O=[N+]([O-])c1cccc(O)c1
- mutagenic call (Species/Cell Type: Allium cepa, Assay Type: Chromosome aberrations, Assay Code: ALC-, Evaluation Type: Evaluation A (Pre-1980)): inactive; negative

Structure (SMILES): CC(C)NCC1CCc2cc(CO)c([N+](=O)[O-])cc2N1 (stereo not drawn)
- mutagenic call (Species/Cell Type: Rodents, Sex: Male, Assay Type: Dominant lethal test, Assay Code: DLT-, Evaluation Type: Evaluation A (Pre-1980)): inactive; negative
- mutagenic call (Species/Cell Type: Salmonella typhimurium (one or more of the five standard strains: TA98, TA100, TA1535, TA1537, and TA1538), Assay Type: Histidine reverse gene mutation, Ames assay, Assay Code: SAL+, Evaluation Type: Evaluation A (Pre-1980)): active; positive
- mutagenic call (Species/Cell Type: Salmonella typhimurium, Assay Type: Forward and reverse gene mutation, body fluid assay, Assay Code: BFU+, Evaluation Type: Evaluation A (Pre-1980)): active; positive
- mutagenic call [8]: active; positive

Structure (SMILES): Nc1ncn([C@@H]2O[C@H](CO)[C@@H](O)[C@H]2O)c(=O)n1
- mutagenic call [5]: active; positive
- mutagenic call [6]: active; positive
- mutagenic call (Species/Cell Type: Mouse (C3H/10T1/2) cells, Assay Type: Cell transformation, Assay Code: CTH+, Evaluation Type: Evaluation A (Pre-1980)): active; positive
- call (Species/Cell Type: Nonhuman, Assay Code: CCG+L, Evaluation Type: Evaluation A (Pre-1980)): active; positive
- mutagenic call (Species/Cell Type: Nonhuman, Assay Type: Sister-chromatid exchange (SCE) in vitro, Assay Code: SC2+D, Dose Response: With dose response, Evaluation Type: Evaluation B (Post-1980)): active; positive

Structure (SMILES): CCCCN(CCCC(=O)NCC(=O)O)N=O
- mutagenic call [1]: no conclusion

Structure (SMILES): Cc1c2c(c(C)c3ccccc13)C(O)C(O)c1ccccc1-2 (stereo not drawn)
- mutagenic call (Species/Cell Type: Chinese hamster lung (V79) cells, Assay Type: Forward gene mutation at the HPRT or ouabain locus, Assay Code: V79-*, Activation: With metabolic activation, Evaluation Type: Evaluation A (Pre-1980)): inactive; negative

Structure (SMILES): C1COCCN1
- mutagenic call [8]: active; positive

Structure (SMILES): C#C[C@]1(O)CC[C@H]2[C@@H]3CCc4cc(O)ccc4[C@H]3CC[C@@]21C
- mutagenic call (Species/Cell Type: Fischer rat embryo (RLV/1706) cells, Assay Type: Cell transformation, viral enhanced, Assay Code: CTR+, Evaluation Type: Evaluation A (Pre-1980)): active; positive
- mutagenic call (Species/Cell Type: Mouse (BALB/c-3T3) cells, Assay Type: Cell transformation, Assay Code: CTB-, Evaluation Type: Evaluation A (Pre-1980)): inactive; negative
- call (Species/Cell Type: Nonhuman, Assay Code: CCG+, Evaluation Type: Evaluation A (Pre-1980)): active; positive
- mutagenic call (Species/Cell Type: Syrian hamster embryo (SHE) cells, Assay Type: Cell transformation, clonal assay, Assay Code: CTC-, Evaluation Type: Evaluation A (Pre-1980)): inactive; negative

Structure (SMILES): CC(=O)[O-].CC(=O)[O-].CC(=O)[O-].[Cr+3]
- mutagenic call (Species/Cell Type: Chinese hamster ovary (CHO) cells, Assay Type: Forward gene mutation at the HPRT locus, Assay Code: CHOT, Evaluation Type: Evaluation B (Post-1980)): no conclusion
- mutagenic call (Species/Cell Type: Nonhuman, Assay Type: Sister-chromatid exchange (SCE) in vitro, Assay Code: SC2T, Evaluation Type: Evaluation B (Post-1980)): no conclusion

Structure (SMILES): CN(CC(C)(C)C)N=O
- mutagenic call [1]: no conclusion
